Changes are numbered by the printed parent chain.
Tests used:
TPα^S331,T337A = biological target: T1, TPα^S331,T337A (Homo sapiens, UniProt P21731, S331A/T337A); experiment: Agonist-mediated TP phosphorylation in whole cells, HEK.TPα^S331,T337A; format: cell-based; details: 1 μM U46619 10 min
T1 construct: expressed in transfected cells
T1 sequence (P21731 1-343 S331A/T337A): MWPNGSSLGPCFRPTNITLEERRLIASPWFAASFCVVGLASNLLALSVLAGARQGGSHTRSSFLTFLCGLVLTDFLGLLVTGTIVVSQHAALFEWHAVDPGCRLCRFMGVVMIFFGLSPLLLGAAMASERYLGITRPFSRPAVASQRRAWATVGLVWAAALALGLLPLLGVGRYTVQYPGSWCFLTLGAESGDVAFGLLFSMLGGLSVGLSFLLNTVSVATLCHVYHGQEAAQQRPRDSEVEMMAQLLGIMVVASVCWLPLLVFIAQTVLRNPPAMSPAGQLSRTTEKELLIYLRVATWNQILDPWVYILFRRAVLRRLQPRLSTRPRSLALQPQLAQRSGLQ
Description: Agonist-mediated TP phosphorylation in whole cells (1.8–2 × 10^6 cells/10 cm dish) was performed essentially as previously described. Briefly, cells were transiently co-transfected with pADVA (10 μg), pCMV:Gαq (25 μg) plus pcDNA:βArrestin2 (25 μg) approximately 48 h prior to labelling. Thereafter, cells were washed once in phosphate-free DMEM, 10% dialysed FBS and were metabolically labelled for 60 min in the same medium (2 ml/10 cm dish) containing 100 μCi/ml [^32P] orthophosphate (8000–9000 Ci/mmol) at 37 °C, 5% CO2. Where appropriate, the PKG kinase inhibitor KT 5823 (50 nM) or its vehicle was added during the labelling period. Thereafter, U46619 (1 μM) or an equivalent volume of vehicle (0.01% ethanol in HBS; 20 μl) were added and cells were incubated for 10 min at 37 °C, 5% CO2. Reactions were terminated by transferring the dishes to ice and aspirating the labelled medium and HA-epitope tagged TP receptors were processed and immunoprecipitated using the anti-HA 101R antibody as previously described. Electroblots were then exposed to Xomat XAR (Kodak) film to detect ^32P-labelled proteins. Thereafter, blots were subject to phosphorimage analysis, and the intensities of agonist-induced phosphorylation were expressed in arbitrary units relative to basal (vehicle-stimulated) levels. […]

TPα = biological target: T2, TPα (Homo sapiens, UniProt P21731); experiment: IP3 generation, HEK.TPα cells; format: cell-based; details: 1 μM U46619 2 min, washout, restimulation at 60 min
T2 construct: expressed in transfected cells
T2 sequence (P21731 1-343): T1 sequence (P21731 1-343 S331A/T337A) with A331S, A337T
Description: Intracellular IP3 levels were measured as previously described [[33,43]]. Briefly, cells were harvested by scraping, washed twice in ice-cold PBS and resuspended at approximately 2 × 10^6 cells/200 μl in HEPES-buffered saline (HBS; […], 4.7 mM KCl, 2.2 mM CaCl2, 1.2 mM KH2PO4, 11 mM glucose, 15 mM HEPES–NaOH, pH 7.4), 10 mM LiCl (Walsh et al., 2000). […] Thereafter, cells were stimulated with 1 μM U46619 at 37 °C for 2 min. To assess agonist-mediated homologous desensitization, cells (2 × 10^6 cells/200 μl) were stimulated with 1 μM U46619 at 37 °C for 2 min (Primary stimulation); thereafter, cells were collected by centrifugation (900×g, 5 min); were washed once in 200 μl HBS, 10 mM LiCl and finally resuspended in 200 μl HBS, 10 mM LiCl and were left to recover for 60 min; thereafter, cells were re-stimulated with 1 μM U46619 at 37 °C for 2 min (secondary stimulation). All ligands and […] were pre-diluted in HBS such that 50 μl added to 200 μl of cell suspension in HBS gave the desired final concentration. To determine basal IP3 levels, an equivalent volume (50 μl) of the vehicle HBS was added instead of ligand. The level of IP3 produced was quantified by radio competition assay essentially as described. […]

CCCCC[C@H](O)/C=C/[C@@H]1[C@@H](C/C=C\CCCC(=O)O)[C@H]2CO[C@@H]1C2 [U46619]
U46619-induced phosphorylation of TPα^S331,T337A (TPα^S331,T337A): failed to undergo significant U46619-induced phosphorylation above basal levels | IP3 generation following secondary restimulation after U46619 pre-incubation (TPα): almost completely inhibited IP3 generation

From PMC2680961, “Homologous desensitization of signalling by the alpha (α) isoform of the human thromboxane A2 receptor: A specific role for nitric oxide signalling” (Biochimica et Biophysica Acta, 2007)
